Test results as given in patent US20100021940A1, “Method for Determining the Activity of a Protease in a Sample” (ASTRAZENECA AB, priority 2006, published 2010).
Where “and” joins values, the source holds several entries; their conditions need not be identical. Equal values may be shown once.

Assays:
[1] = test system: MMP9; assay: MMP9 activity in whole blood via 4-nitroaniline in plasma after zymosan stimulation (LC-MS); assay type: biochemical, human; details: for 4-nitroaniline concentration, Mean: group mean; for 4-nitroaniline concentration: individual subjects, substrate 10 μM in plasma, 37° C., 60 min
Procedure: Samples of heparinised whole blood (1 mL) were stimulated with Zymosan (0, 50, 300, 600, 900 and 1200 μg/mL), vortexed or and incubated at 37° C. for 15 minutes. Plasma was collected after centrifugation, mixed with the substrate (10 μM) and incubated at 37° C. for 60 minutes. Methanol (300 μL), with (^13C)6-4-nitroaniline (1 μM) as internal standard, was added to a 100 μL aliquot of the above mixture and centrifuged to remove precipitated proteins. The supernatant (100 μL) was diluted with water (100 μL) and the extracts was injected directly onto a HPLC column.
Thaw, as required, pooled control human plasma, quality control and test samples. Add methyl 1-acetyl-L-prolyl-L-leucylglycyl-α-R-(4-nitrophenylamino)-glycyl-L-leucyl-β-alaninate (2 μL, solution D) to test plasma sample (200 μL) in 2 mL screw cap microtubes and mix on a vortex mixer.
Incubate tubes for 60 minutes at 37° C. in a shaking water bath. Prepare the calibration samples in plasma as detailed in Table 1 during the 60 minute incubation of test samples in step 3. Mix the samples on a vortex mixer.
Manually dispense aliquots (100 μL) of each plasma sample into separate wells of a 96 deep-well 2 mL plate using an appropriate pipette. (Note: start pipetting calibration, quality control and blank samples approximately 10 minutes before the test samples have finished their incubation in step 3). Dispense internal standard in methanol (300 μL) into each well using the Tecan. Cover the plate with polystyrene cover. Centrifuge at 3000 rpm for 5 minutes at room temperature.
Transfer an aliquot (100 μL) of the sample supernatant into separate wells of a 96 deep-well 2 mL plate using the Tecan. Mix water (100 μL) with each sample in the wells of a 96 deep-well polypropylene plate using the Tecan. Cover plate with pre-spilt 96 well seal.
Analyse 10 μL aliquots by LC/MS.
Whole blood samples were stimulated with varying concentrations of zymosan (0, 50, 300, 600, 900 and 1200 μg/mL). Plasma sample obtained from the stimulated whole blood samples were mixed with the substrate methyl 1-acetyl-L-prolyl-L-leucylglycyl-α-R-(4-nitrophenylamino)-glycyl-L-leucyl-β-alaninate at a plasma concentration of 10 μM and the samples were then incubated at 37° C. for 60 minutes. Aliquots (100 μL) of the human plasma were mixed with methanol (300 μL) containing [^13C]6-4-nitroaniline as an internal standard to precipitate the proteins and the sample was centrifuged and supernatants (100 μL) were mixed with water (100 μL). The extracts 10 μL were injected directly onto a Phenomenex Luna phenyl-hexyl column (50×2.0 mm, 5 μm) and the compounds eluted with a gradient mobile phase consisting of 0.01% ammonia/methanol. 4-nitroaniline was resolved from endogenous plasma constituents and the HPLC effluent was directed into the mass spectrometer via a heated nebuliser interface in negative mode. 4-nitroaniline and [^13C]6-4-nitroaniline were detected using single ion monitoring of the [M-H]^− ions at the mass to charge ratio of m/z 137 and 143 respectively. The method is described above.
The method is validated over the range 0.0500 to 10.0 μM for 4-nitroaniline based on the analysis of a 100 μL plasma sample. Quality control samples at concentrations of 0.100, 2.00 and 8.00 μM 4-nitroaniline were included to determine the acceptability of each analysis batch. The limit of quantification (LOQ) of the method is 0.0500 μM 4-nitroaniline for a 100 μL aliquot of plasma.

[2] = test system: MMP14; assay: Activity of purified MMP on substrate (reporter release); assay type: biochemical, human; details: 30 μM substrate; MMP Conc. 4.8 nM; AZL0078
From the text: In order to confirm the specificity of the substrates for various MMPs, standard enzymatic assays were adapted to monitor the release of reporter. The reporter was either analysed by a LC-MS method as described in Example 3a, or by a LC-UV method as described in Example 4.
Recombinant human MMP14 catalytic domain may be expressed and purified as described by Parkar A. A. et al, (2000), Protein Expression and Purification, 20, 152. The purified enzyme can be used to monitor activity of substrates as follows: MMP14 (10 ng/ml final […]) in assay buffer (0.1M “Tris-HCl” (trade mark) buffer, pH 7.5 containing 0.1M NaCl, 20 mM CaCl2, 0.020 mM ZnCl and 0.05% (w/v) “Brij 35” (trade mark) detergent) in the presence or absence of inhibitors. Activity is determined by measuring the release of reporter 4-nitroaniline by the using the method in Example 3a.

[3] = healthy volunteers, visit 3, zymosan 0 μg
[4] = healthy volunteers, visit 3, zymosan 50 μg
[5] = healthy volunteers, visit 3, zymosan 300 μg
[6] = healthy volunteers, visit 3, zymosan 600 μg
[7] = healthy volunteers, visit 3, zymosan 900 μg
[8] = healthy volunteers, visit 3, zymosan 1200 μg
[9] = healthy volunteers, visit 4, zymosan 0 μg
[10] = healthy volunteers, visit 4, zymosan 50 μg
[11] = healthy volunteers, visit 4, zymosan 300 μg
[12] = healthy volunteers, visit 4, zymosan 600 μg
[13] = healthy volunteers, visit 4, zymosan 900 μg
[14] = healthy volunteers, visit 4, zymosan 1200 μg

COC(=O)CCNC(=O)[C@H](CC(C)C)NC(=O)[C@@H](NC(=O)CNC(=O)[C@H](CC(C)C)NC(=O)[C@@H]1CCCN1C(C)=O)Nc1ccc([N+](=O)[O-])cc1 [Example 1.1, Methyl 1-acetyl-L-prolyl-L-leucylglycyl-α-R-(4-nitrophenylamino)-glycyl-L-leucyl-β-alaninate]
4-nitroaniline concentration, Mean ([1]; COPD patients, visit 3, zymosan 0 μg): 0.128 µM
4-nitroaniline concentration, Mean ([1]; COPD patients, visit 3, zymosan 50 μg): 1.58 µM
4-nitroaniline concentration, Mean ([1]; COPD patients, visit 3, zymosan 300 μg): 3.56 µM
4-nitroaniline concentration, Mean ([1]; COPD patients, visit 3, zymosan 600 μg): 4.33 µM
4-nitroaniline concentration, Mean ([1]; COPD patients, visit 3, zymosan 900 μg): 4.77 µM
4-nitroaniline concentration, Mean ([1]; COPD patients, visit 3, zymosan 1200 μg): 4.68 µM
4-nitroaniline concentration, Mean ([1]; COPD patients, visit 4, zymosan 0 μg): 0.141 µM
4-nitroaniline concentration, Mean ([1]; COPD patients, visit 4, zymosan 50 μg): 1.51 µM
4-nitroaniline concentration, Mean ([1]; COPD patients, visit 4, zymosan 300 μg): 3.31 µM
4-nitroaniline concentration, Mean ([1]; COPD patients, visit 4, zymosan 600 μg): 4.03 µM
4-nitroaniline concentration, Mean ([1]; COPD patients, visit 4, zymosan 900 μg): 4.41 µM
4-nitroaniline concentration, Mean ([1]; COPD patients, visit 4, zymosan 1200 μg): 4.54 µM
4-nitroaniline concentration, Mean [1, 3]: 0.121 µM
4-nitroaniline concentration [1, 3]: 0.145 μM (2×) and 0.132 μM and 0.126 μM and 0.0917 μM and 0.124 μM and 0.104 μM and 0.0963 μM and 0.118 μM and 0.123 μM
4-nitroaniline concentration, Mean [1, 4]: 1.22 µM
4-nitroaniline concentration [1, 4]: 1.13 μM (2×) and 1.82 μM and 2.10 μM and 1.52 μM and 0.988 μM and 0.836 μM and 0.878 μM and 0.646 μM and 1.16 μM
4-nitroaniline concentration, Mean [1, 5]: 2.82 µM
4-nitroaniline concentration [1, 5]: 2.48 µM and 3.68 µM and 2.65 µM and 4.32 µM and 3.63 µM and 2.82 µM and 2.31 µM and 2.42 µM and 1.56 µM and 2.28 µM
4-nitroaniline concentration, Mean [1, 6]: 3.36 µM
4-nitroaniline concentration [1, 6]: 3.00 µM and 4.26 µM and 2.98 µM and 4.39 µM and 4.23 µM and 3.90 µM and 3.08 µM and 2.99 µM and 1.84 µM and 2.95 µM
4-nitroaniline concentration, Mean [1, 7]: 3.52 µM
4-nitroaniline concentration [1, 7]: 3.05 µM and 4.50 µM and 3.14 µM and 4.38 µM and 4.24 µM and 3.98 µM and 3.45 µM and 3.35 µM and 2.07 µM and 2.99 µM
4-nitroaniline concentration, Mean [1, 8]: 3.59 µM
4-nitroaniline concentration [1, 8]: 3.07 µM and 4.53 µM and 2.99 µM and 4.28 µM and 4.45 µM and 4.41 µM and 3.53 µM and 3.50 µM and 2.14 µM and 3.02 µM
4-nitroaniline concentration, Mean [1, 9]: 0.131 µM
4-nitroaniline concentration [1, 9]: 0.154 µM and 0.192 µM and 0.106 µM and 0.0977 µM and 0.130 µM and 0.199 µM and 0.0803 µM
4-nitroaniline concentration, Mean [1, 10]: 0.986 µM
4-nitroaniline concentration [1, 10]: 1.49 µM and 2.11 µM and 0.808 µM and 0.616 µM and 0.732 µM and 0.795 µM and 0.758 µM
4-nitroaniline concentration, Mean [1, 11]: 2.39 µM
4-nitroaniline concentration [1, 11]: 2.81 µM and 4.29 µM and 1.92 µM and 1.68 µM and 1.98 µM and 2.29 µM and 2.22 µM
4-nitroaniline concentration, Mean [1, 12]: 2.84 µM
4-nitroaniline concentration [1, 12]: 3.17 µM and 4.36 µM and 2.39 µM and 2.12 µM and 2.41 µM and 3.36 µM
4-nitroaniline concentration, Mean [1, 13]: 3.26 µM
4-nitroaniline concentration [1, 13]: 3.27 μM and 5.53 μM and 2.69 μM and 2.46 μM and 3.03 μM and 3.48 μM (2×)
4-nitroaniline concentration, Mean [1, 14]: 3.39 µM
4-nitroaniline concentration [1, 14]: 3.32 µM and 5.28 µM and 2.84 µM and 2.85 µM and 3.15 µM and 4.00 µM
4-nitroaniline concentration, Mean ([1]; smokers, visit 3, zymosan 0 μg): 0.149 µM
4-nitroaniline concentration, Mean ([1]; smokers, visit 3, zymosan 50 μg): 1.45 µM
4-nitroaniline concentration, Mean ([1]; smokers, visit 3, zymosan 300 μg): 3.35 µM
4-nitroaniline concentration, Mean ([1]; smokers, visit 3, zymosan 600 μg): 4.10 µM
4-nitroaniline concentration, Mean ([1]; smokers, visit 3, zymosan 900 μg): 4.45 µM
4-nitroaniline concentration, Mean ([1]; smokers, visit 3, zymosan 1200 μg): 4.47 µM
4-nitroaniline concentration, Mean ([1]; smokers, visit 4, zymosan 0 μg): 0.142 µM
4-nitroaniline concentration, Mean ([1]; smokers, visit 4, zymosan 50 μg): 1.66 µM
4-nitroaniline concentration, Mean ([1]; smokers, visit 4, zymosan 300 μg): 3.32 µM
4-nitroaniline concentration, Mean ([1]; smokers, visit 4, zymosan 600 μg): 3.76 µM
4-nitroaniline concentration, Mean ([1]; smokers, visit 4, zymosan 900 μg): 4.19 µM
4-nitroaniline concentration, Mean ([1]; smokers, visit 4, zymosan 1200 μg): 4.41 µM
Activity [2]: 1.0 units/s
